Experimental data reported in US9023821B2, “Use of MicroRNA for treating diseases associated with a dysfunction of the cilia in multiciliated epithelial cells” (Centre National de la Recherche Scientifique, priority 2009, dated 2015).

Assays:
[1] = tested on: human airway epithelial cells (HAECs); assay: High-throughput sequencing (HTS) of miRNAs at four stages of differentiation of HAECs; details: for Modulation (ratio of the level of intensity of expression in log2 in two stages of differentiation) measured by high-throughput sequencing, D7 − D0 / Modulation (ratio of the level of intensity of expression in log2 in two stages of differentiation) measured by high-throughput sequencing, FC − D7 / Modulation (ratio of the level of intensity of expression in log2 in two stages of differentiation) measured by high-throughput sequencing, WD − D0 / Modulation (ratio of the level of intensity of expression in log2 in two stages of differentiation) measured by high-throughput sequencing, WD − FC / Level of intensity of expression in log2 measured by high-throughput sequencing, D0 / Level of intensity of expression in log2 measured by high-throughput sequencing, D7 / Level of intensity of expression in log2 measured by high-throughput sequencing, FC / Level of intensity of expression in log2 measured by high-throughput sequencing, WD: Table VI; for Level of intensity of expression in log2 At the differentiated stage (WD) measured in HTS: healthy human airway epithelial tissue; for Level of intensity of expression in log2 measured by high-throughput sequencing, D0: stage D0; for Level of intensity of expression in log2 measured by high-throughput sequencing, D7: stage D7; for Level of intensity of expression in log2 measured by high-throughput sequencing, FC: stage FC; for Level of intensity of expression in log2 At the differentiated stage (WD) measured in HTS / Level of intensity of expression in log2 measured by high-throughput sequencing, WD: stage WD; for Modulation (ratio of the level of intensity of expression in log2 in two stages of differentiation), D7 − D0 / Modulation (ratio of the level of intensity of expression in log2 in two stages of differentiation), FC − D7 / Modulation (ratio of the level of intensity of expression in log2 in two stages of differentiation), WD − FC / Abundance (%), D0 / Abundance (%), D7 / Abundance (%), FC / Abundance (%), WD: HTS; for Abundance (%), D0: ALI-D0; for Abundance (%), D7: ALI-D7; for Abundance (%), FC: ALI-FC; for Abundance (%), WD: ALI-WD
How it was run: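 Total RNA (with small RNAs) from air-liquid-interface HAECs at ALI-D0, D7, first cilia (~14 d) and fully differentiated (~21 d); adaptor-ligated SOLiD small-RNA libraries, RT-PCR, gel-selected ~105-150 bases. Counts normalized to 10^6 sequences as % abundance; linear-model/empirical Bayes; kept >1% abundance, |Log2 Ratio| <0.5, adjusted P <0.05.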

[2] = tested on: human airway epithelial cells (HAECs); assay: Agilent miRNA chips, miRNA expression at four stages of differentiation of HAECs; details: for Modulation (ratio of the level of intensity of expression in log2 in two stages of differentiation) measured with the Agilent chips, D7 − D0 / Modulation (ratio of the level of intensity of expression in log2 in two stages of differentiation) measured with the Agilent chips, FC − D7 / Modulation (ratio of the level of intensity of expression in log2 in two stages of differentiation) measured with the Agilent chips, WD − D0 / Modulation (ratio of the level of intensity of expression in log2 in two stages of differentiation) measured with the Agilent chips, WD − FC / Level of intensity of expression in log2 measured with the Agilent chips, D0 / Level of intensity of expression in log2 measured with the Agilent chips, D7 / Level of intensity of expression in log2 measured with the Agilent chips, FC / Level of intensity of expression in log2 measured with the Agilent chips, WD: Table VI; for Modulation (ratio of the level of intensity of expression in log2 at two stages of differentiation), FC − D7 / Modulation (ratio of the level of intensity of expression in log2 at two stages of differentiation), WD − FC: Agilent miRNA chips, Table V; for Level of intensity of expression in log2 measured with the Agilent chips, D0: stage D0; for Level of intensity of expression in log2 measured with the Agilent chips, D7: stage D7; for Level of intensity of expression in log2 measured with the Agilent chips, FC: stage FC; for Level of intensity of expression in log2 measured with the Agilent chips, WD: stage WD
How it was run: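 Microarray v2 (866 human + 89 viral miRNAs; miRBase v.12.0). Input: RNA from the same donors as sequencing. Labelling/hybridization per kit protocol. Profiles cross-checked vs sequencing.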

[3] = tested on: basal cells and pyramidal cells of the airway epithelium; assay: miRNA expression in sorted basal cells versus pyramidal cells (ciliated + secretory), HTS and Agilent chips; design: species or system human; details: for Modulation of expression of the miRNAs in pyramidal cells (323(−)) relative to basal cells 323(+): HTS and Agilent chips; for Intensity of the level of expression in log2 in pyramidal cells (323(−)): pyramidal cells (ciliated + secretory)
How it was run: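 Nasal polyp or concha epithelial cells from 3 donors FACS-sorted into CD151+/tissue factor+ basal cells and CD151−/TF− pyramidal (ciliated plus mucus-secreting) cells, excluding dead (DAPI) cells and doublets. miRNA profiles from total RNA obtained by Agilent chips or high-throughput sequencing.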

Row | Substance | Modulation (ratio of the level of intensity of expression in log2 in two stages of differentiation) measured by high-throughput sequencing, D7 − D0 [1] | Modulation (ratio of the level of intensity of expression in log2 in two stages of differentiation) measured by high-throughput sequencing, FC − D7 [1] | Modulation (ratio of the level of intensity of expression in log2 in two stages of differentiation) measured by high-throughput sequencing, WD − D0 [1] | Modulation (ratio of the level of intensity of expression in log2 in two stages of differentiation) measured by high-throughput sequencing, WD − FC [1] | Level of intensity of expression in log2 At the differentiated stage (WD) measured in HTS [1] | Level of intensity of expression in log2 measured by high-throughput sequencing, D0 [1] | Level of intensity of expression in log2 measured by high-throughput sequencing, D7 [1] | Level of intensity of expression in log2 measured by high-throughput sequencing, FC [1] | Level of intensity of expression in log2 measured by high-throughput sequencing, WD [1] | Modulation (ratio of the level of intensity of expression in log2 in two stages of differentiation) measured with the Agilent chips, D7 − D0 [2] | Modulation (ratio of the level of intensity of expression in log2 in two stages of differentiation) measured with the Agilent chips, FC − D7 [2] | Modulation (ratio of the level of intensity of expression in log2 in two stages of differentiation) measured with the Agilent chips, WD − D0 [2] | Modulation (ratio of the level of intensity of expression in log2 in two stages of differentiation) measured with the Agilent chips, WD − FC [2] | Level of intensity of expression in log2 measured with the Agilent chips, D0 [2] | Level of intensity of expression in log2 measured with the Agilent chips, D7 [2] | Level of intensity of expression in log2 measured with the Agilent chips, FC [2] | Level of intensity of expression in log2 measured with the Agilent chips, WD [2] | Modulation of expression of the miRNAs in pyramidal cells (323(−)) relative to basal cells 323(+) [3] | Intensity of the level of expression in log2 in basal cells (323(+)) [3] | Intensity of the level of expression in log2 in pyramidal cells (323(−)) [3] | other results
1 | hsa-miR-26a: human miRNA, SEQ ID No. 28 (UUCAAGUAAUCCAGGAUAGGCU; expressed or natural sequence; listed as Homo sapiens) | 1.31 log2 | −0.98 log2 | 3.22 log2 | 2.90 log2 | 7.75 log2 | 0.30 log2 | 1.61 log2 | 0.62 log2 | 3.52 log2 | 2.20 log2 | −0.11 log2 | 2.15 log2 | 0.06 log2 | 8.50 log2 | 10.70 log2 | 10.59 log2 | 10.65 log2 | −2.24 | 9.92 log2 | 7.68 log2 | Modulation (ratio of the level of intensity of expression in log2 at two stages of differentiation), FC − D7 [2]: −0.11 log2; Modulation (ratio of the level of intensity of expression in log2 at two stages of differentiation), WD − FC [2]: 0.06 log2
2 | hsa-miR-140-3p: human miRNA, SEQ ID No. 5 (UACCACAGGGUAGAACCACGG; expressed or natural sequence; listed as Homo sapiens) | 0.33 log2 | 0.37 log2 | 0.73 log2 | 0.04 log2 | 13.12 log2 | 12.39 log2 | 12.72 log2 | 13.08 log2 | 13.12 log2 | 1.54 log2 | −0.08 log2 | 1.52 log2 | 0.06 log2 | 3.55 log2 | 5.09 log2 | 5.01 log2 | 5.07 log2 | 0.91 | 2.75 log2 | 3.66 log2 | Modulation (ratio of the level of intensity of expression in log2 in two stages of differentiation), D7 − D0 [1]: 0.33 log2; Modulation (ratio of the level of intensity of expression in log2 in two stages of differentiation), FC − D7 [1]: 0.37 log2; Modulation (ratio of the level of intensity of expression in log2 in two stages of differentiation), WD − FC [1]: 0.04 log2; Abundance (%), D0 [1]: 1.17%; Abundance (%), D7 [1]: 1.48%; Abundance (%), FC [1]: 1.85%; Abundance (%), WD [1]: 1.44%
3 | hsa-miR-29c: human miRNA, SEQ ID No. 32 (UAGCACCAUUUGAAAUCGGUUA; expressed or natural sequence; listed as Homo sapiens) | 0.82 log2 | 0.02 log2 | 0.87 log2 | 0.03 log2 | 9.74 log2 | 13.66 log2 | 14.48 log2 | 14.50 log2 | 14.53 log2 | 1.61 log2 | −0.28 log2 | 1.57 log2 | 0.24 log2 | 9.04 log2 | 10.66 log2 | 10.38 log2 | 10.62 log2 | −3.06 | 11.06 log2 | 8.00 log2 | Modulation (ratio of the level of intensity of expression in log2 in two stages of differentiation), D7 − D0 [1]: 0.82 log2; Modulation (ratio of the level of intensity of expression in log2 in two stages of differentiation), FC − D7 [1]: 0.02 log2; Modulation (ratio of the level of intensity of expression in log2 in two stages of differentiation), WD − FC [1]: 0.03 log2; Abundance (%), D0 [1]: 2.84%; Abundance (%), D7 [1]: 5.03%; Abundance (%), FC [1]: 4.95%; Abundance (%), WD [1]: 3.82%; Modulation (ratio of the level of intensity of expression in log2 at two stages of differentiation), FC − D7 [2]: −0.28 log2; Modulation (ratio of the level of intensity of expression in log2 at two stages of differentiation), WD − FC [2]: 0.24 log2
4 | hsa-miR-429: human miRNA, SEQ ID No. 45 (UAAUACUGUCUGGUAAAACCGU; expressed or natural sequence; listed as Homo sapiens) | 0.42 log2 | 0.14 log2 | 1.30 log2 | 0.74 log2 | 15.11 log2 | 8.23 log2 | 8.65 log2 | 8.79 log2 | 9.53 log2 | 1.71 log2 | 0.14 log2 | 1.95 log2 | 0.10 log2 | 7.97 log2 | 9.68 log2 | 9.82 log2 | 9.93 log2 | −0.31 | 6.92 log2 | 6.61 log2 | Modulation (ratio of the level of intensity of expression in log2 at two stages of differentiation), FC − D7 [2]: 0.14 log2; Modulation (ratio of the level of intensity of expression in log2 at two stages of differentiation), WD − FC [2]: 0.10 log2
